In ChEMBL document CHEMBL4321866, “Discovery of Highly Potent and Efficient PROTAC Degraders of Androgen Receptor (AR) by Employing Weak Binding Affinity VHL E3 Ligase Ligands” (J Med Chem, 2019):
Activity calls are given as the source filed them. No cut-off for these calls is given here.

Key:
[1] = molecular target: T1, von Hippel-Lindau disease tumor suppressor/Androgen receptor (Homo sapiens, UniProt P10275+P40337); assay: Protac activity against VHL/AR in AR-positive human LNCAP cells assessed as AR degradation at 100 nM preincubated with AR antagonist N-((1r,3r)-3-(3-Chloro-4-cyanophenoxy)-2,2,4,4-tetramethylcyclobutyl)-1-(2-hydroxyethyl)-1H-pyrazole-4-carboxamide for 2 hrs followed by incubation with compound addition for 6 hrs by Western blot analysis; format: cell-based
Target sequence in this assay (P10275 whole entry, looked up): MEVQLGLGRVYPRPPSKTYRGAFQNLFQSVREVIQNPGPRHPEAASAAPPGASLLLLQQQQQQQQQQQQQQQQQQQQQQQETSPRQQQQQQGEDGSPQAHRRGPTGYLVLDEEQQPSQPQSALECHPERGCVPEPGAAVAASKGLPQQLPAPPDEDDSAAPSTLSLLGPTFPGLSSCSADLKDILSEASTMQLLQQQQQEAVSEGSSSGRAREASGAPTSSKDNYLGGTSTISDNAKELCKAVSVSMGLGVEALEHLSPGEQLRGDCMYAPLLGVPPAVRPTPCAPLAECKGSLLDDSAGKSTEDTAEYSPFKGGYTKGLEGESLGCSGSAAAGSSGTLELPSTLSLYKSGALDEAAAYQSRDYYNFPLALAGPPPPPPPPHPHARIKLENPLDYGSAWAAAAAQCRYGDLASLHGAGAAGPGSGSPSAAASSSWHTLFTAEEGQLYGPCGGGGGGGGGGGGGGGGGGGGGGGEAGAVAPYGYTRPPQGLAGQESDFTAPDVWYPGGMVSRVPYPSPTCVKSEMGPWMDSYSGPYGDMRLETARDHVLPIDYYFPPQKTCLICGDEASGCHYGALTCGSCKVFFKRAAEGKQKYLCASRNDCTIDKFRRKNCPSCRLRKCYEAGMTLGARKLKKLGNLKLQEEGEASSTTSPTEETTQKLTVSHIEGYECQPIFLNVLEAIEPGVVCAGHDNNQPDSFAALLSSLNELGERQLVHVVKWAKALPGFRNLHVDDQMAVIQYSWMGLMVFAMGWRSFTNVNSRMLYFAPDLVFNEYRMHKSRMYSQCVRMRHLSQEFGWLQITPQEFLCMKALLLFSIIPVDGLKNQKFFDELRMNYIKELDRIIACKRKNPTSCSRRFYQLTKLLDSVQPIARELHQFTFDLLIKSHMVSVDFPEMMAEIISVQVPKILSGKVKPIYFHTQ
Target sequence in this assay (P40337 whole entry, looked up): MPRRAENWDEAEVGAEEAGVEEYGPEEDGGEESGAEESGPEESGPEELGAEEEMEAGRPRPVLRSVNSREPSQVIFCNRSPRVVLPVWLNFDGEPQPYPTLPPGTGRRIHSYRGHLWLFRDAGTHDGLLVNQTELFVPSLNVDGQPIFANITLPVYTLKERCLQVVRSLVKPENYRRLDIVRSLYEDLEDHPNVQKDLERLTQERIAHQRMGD

[2] = molecular target: T1, von Hippel-Lindau disease tumor suppressor/Androgen receptor; assay: Protac activity against VHL/AR in AR-positive human VCaP cells assessed as reduction in TMPRSS2 mRNA expression level incubated for 24 hrs by qRT-PCR analysis relative to N-((1r,3r)-3-(3-Chloro-4-cyanophenoxy)-2,2,4,4-tetramethylcyclobutyl)-1-(2-hydroxyethyl)-1H-pyrazole-4-carboxamide; format: cell-based
Target sequence in this assay (P10275 whole entry, looked up): as the sequence (P10275 whole entry, looked up) above
Target sequence in this assay (P40337 whole entry, looked up): as the sequence (P40337 whole entry, looked up) above

[3] = molecular target: T1, von Hippel-Lindau disease tumor suppressor/Androgen receptor; assay: Protac activity against VHL/AR in AR-positive human LNCAP cells assessed as reduction in PSA mRNA expression level incubated for 24 hrs by qRT-PCR analysis relative to N-((1r,3r)-3-(3-Chloro-4-cyanophenoxy)-2,2,4,4-tetramethylcyclobutyl)-1-(2-hydroxyethyl)-1H-pyrazole-4-carboxamide; format: cell-based
Target sequence in this assay (P10275 whole entry, looked up): as the sequence (P10275 whole entry, looked up) above
Target sequence in this assay (P40337 whole entry, looked up): as the sequence (P40337 whole entry, looked up) above

[4] = molecular target: T1, von Hippel-Lindau disease tumor suppressor/Androgen receptor; assay: Protac activity against VHL/AR in AR-positive human LNCAP cells assessed as AR degradation at 100 nM preincubated with NEDD8-activating E1 enzyme inhibitor, MLN4924 for 2 hrs followed by incubation with compound for 6 hrs by Western blot analysis; format: cell-based
Target sequence in this assay (P10275 whole entry, looked up): as the sequence (P10275 whole entry, looked up) above
Target sequence in this assay (P40337 whole entry, looked up): as the sequence (P40337 whole entry, looked up) above

[5] = molecular target: T1, von Hippel-Lindau disease tumor suppressor/Androgen receptor; assay: Protac activity against VHL/AR in AR-positive human LNCAP cells assessed as induction of AR degradation by measuring reduction in AR protein level at 100 nM incubated for 3 hrs by Western blot analysis; format: cell-based
Target sequence in this assay (P10275 whole entry, looked up): as the sequence (P10275 whole entry, looked up) above
Target sequence in this assay (P40337 whole entry, looked up): as the sequence (P40337 whole entry, looked up) above

[6] = molecular target: T1, von Hippel-Lindau disease tumor suppressor/Androgen receptor; assay: Protac activity against VHL/AR in AR-positive human LNCAP cells assessed as reduction in FKBP5 mRNA expression level incubated for 24 hrs by qRT-PCR analysis; format: cell-based
Target sequence in this assay (P10275 whole entry, looked up): as the sequence (P10275 whole entry, looked up) above
Target sequence in this assay (P40337 whole entry, looked up): as the sequence (P40337 whole entry, looked up) above

[7] = molecular target: T1, von Hippel-Lindau disease tumor suppressor/Androgen receptor; assay: Protac activity against VHL/AR in AR-positive human LNCAP cells assessed as AR degradation at 100 nM preincubated with VHL ligand VHLa for 2 hrs followed by incubation with compound for 6 hrs by Western blot analysis; format: cell-based
[8] = molecular target: T1, von Hippel-Lindau disease tumor suppressor/Androgen receptor; assay: Protac activity against VHL/AR in AR-positive human VCaP cells assessed as induction of AR degradation incubated for 6 hrs by Western blot analysis; format: cell-based
[9] = molecular target: T1, von Hippel-Lindau disease tumor suppressor/Androgen receptor; assay: Protac activity against VHL/AR in AR-positive human LNCAP cells assessed as reduction in TMPRSS2 mRNA expression level at 10 nM incubated for 24 hrs by qRT-PCR analysis relative to control; format: cell-based; set-up: scale not given: the % may be the effect or the level left
[10] = molecular target: T1, von Hippel-Lindau disease tumor suppressor/Androgen receptor; assay: Protac activity against VHL/AR in AR-positive human LNCAP cells assessed as induction of AR degradation by measuring reduction in AR protein level at 30 nM incubated for 6 hrs by Western blot analysis relative to control; format: cell-based; set-up: scale not given: the % may be the effect or the level left
[11] = molecular target: T1, von Hippel-Lindau disease tumor suppressor/Androgen receptor; assay: Protac activity against VHL/AR in AR-positive human LNCAP cells assessed as reduction in TMPRSS2 mRNA expression level incubated for 24 hrs by qRT-PCR analysis relative to N-((1r,3r)-3-(3-Chloro-4-cyanophenoxy)-2,2,4,4-tetramethylcyclobutyl)-1-(2-hydroxyethyl)-1H-pyrazole-4-carboxamide; format: cell-based
[12] = molecular target: T1, von Hippel-Lindau disease tumor suppressor/Androgen receptor; assay: Protac activity against VHL/AR in AR-positive human 22Rv1 cells assessed as induction of AR degradation incubated for 6 hrs by Western blot analysis
VCaP [13] = assay: Potency index, ratio of IC50 for AR antagonist N-((1r,3r)-3-(3-Chloro-4-cyanophenoxy)-2,2,4,4-tetramethylcyclobutyl)-1-(2-hydroxyethyl)-1H-pyrazole-4-carboxamide to IC50 for test compound against AR-positive human VCaP cells incubated for 7 days in presence of AR agonist R1881 by WST-8 assay; format: functional
[14] = molecular target: T1, von Hippel-Lindau disease tumor suppressor/Androgen receptor; assay: Protac activity against VHL/AR in AR-positive human VCaP cells assessed as induction of AR degradation by measuring reduction in AR protein level at 100 nM incubated for 3 hrs by Western blot analysis relative to control; format: cell-based; set-up: scale not given: the % may be the effect or the level left
[15] = molecular target: T1, von Hippel-Lindau disease tumor suppressor/Androgen receptor; assay: Protac activity against VHL/AR in AR-positive human LNCAP cells assessed as induction of AR degradation at 1 uM incubated for 6 hrs by Western blot analysis relative to control; format: cell-based
[16] = molecular target: T1, von Hippel-Lindau disease tumor suppressor/Androgen receptor; assay: Protac activity against VHL/AR in AR-positive human LNCAP cells assessed as reduction in FKBP5 mRNA expression level incubated for 24 hrs by qRT-PCR analysis relative to N-((1r,3r)-3-(3-Chloro-4-cyanophenoxy)-2,2,4,4-tetramethylcyclobutyl)-1-(2-hydroxyethyl)-1H-pyrazole-4-carboxamide; format: cell-based
[17] = molecular target: T1, von Hippel-Lindau disease tumor suppressor/Androgen receptor; assay: Protac activity against VHL/AR in AR-positive human LNCAP cells assessed as reduction in TMPRSS2 mRNA expression level incubated for 24 hrs by qRT-PCR analysis; format: cell-based
[18] = molecular target: T1, von Hippel-Lindau disease tumor suppressor/Androgen receptor; assay: Protac activity against VHL/AR in AR-positive human LNCAP cells assessed as reduction in PSA mRNA expression level incubated for 24 hrs by qRT-PCR analysis; format: cell-based
[19] = molecular target: T1, von Hippel-Lindau disease tumor suppressor/Androgen receptor; assay: Protac activity against VHL/AR in AR-positive human LNCAP cells assessed as AR degradation at 100 nM preincubated with proteasome inhibitor, MG132 for 2 hrs followed by incubation with compound for 6 hrs by Western blot analysis; format: cell-based
[20] = molecular target: T1, von Hippel-Lindau disease tumor suppressor/Androgen receptor; assay: Protac activity against VHL/AR in AR-positive human LNCAP cells assessed as induction of AR degradation incubated for 6 hrs by Western blot analysis; format: cell-based
[21] = molecular target: T1, von Hippel-Lindau disease tumor suppressor/Androgen receptor; assay: Protac activity against VHL/AR in AR-positive human 22Rv1 cells assessed as induction of AR degradation by measuring reduction in AR protein level at 10 nM incubated for 6 hrs by Western blot analysis relative to control; set-up: scale not given: the % may be the effect or the level left
LNCaP = assay: Antiproliferative activity against AR-positive human LNCAP cells incubated for 7 days in presence of AR agonist, R1881 by WST-8 assay; format: functional, cell-based; conditions: 168 h
[22] = molecular target: T1, von Hippel-Lindau disease tumor suppressor/Androgen receptor; assay: Protac activity against VHL/AR in AR-positive human LNCAP cells assessed as reduction in FKBP5 mRNA expression level at 10 nM incubated for 24 hrs by qRT-PCR analysis relative to control; format: cell-based; set-up: scale not given: the % may be the effect or the level left
[23] = molecular target: T1, von Hippel-Lindau disease tumor suppressor/Androgen receptor; assay: Protac activity against VHL/AR in AR-positive human VCaP cells assessed as induction of AR degradation by measuring reduction in AR protein level at 30 nM incubated for 6 hrs by Western blot analysis relative to control; format: cell-based; set-up: scale not given: the % may be the effect or the level left
VCaP [24] = assay: Antiproliferative activity against AR- positive human VCaP cells incubated for 7 days in presence of AR agonist, R1881 by WST-8 assay; format: functional, cell-based; conditions: 168 h
[25] = molecular target: T1, von Hippel-Lindau disease tumor suppressor/Androgen receptor; assay: Protac activity against VHL/AR in AR-positive human LNCAP cells assessed as induction of AR degradation at 0.1 uM incubated for 6 hrs by Western blot analysis relative to control; format: cell-based
[26] = molecular target: T1, von Hippel-Lindau disease tumor suppressor/Androgen receptor; assay: Protac activity against VHL/AR in AR-positive human VCaP cells assessed as reduction in FKBP5 mRNA expression level incubated for 24 hrs by qRT-PCR analysis relative to N-((1r,3r)-3-(3-Chloro-4-cyanophenoxy)-2,2,4,4-tetramethylcyclobutyl)-1-(2-hydroxyethyl)-1H-pyrazole-4-carboxamide; format: cell-based
[27] = molecular target: T1, von Hippel-Lindau disease tumor suppressor/Androgen receptor; assay: Protac activity against VHL/AR in AR-positive human LNCAP cells assessed as induction of AR degradation at 0.01 uM incubated for 6 hrs by Western blot analysis relative to control; format: cell-based
[28] = molecular target: T1, von Hippel-Lindau disease tumor suppressor/Androgen receptor; assay: Protac activity against VHL/AR in AR-positive human LNCAP cells assessed as reduction in PSA mRNA expression level at 10 nM incubated for 24 hrs by qRT-PCR analysis relative to control; format: cell-based; set-up: scale not given: the % may be the effect or the level left
[29] = molecular target: T1, von Hippel-Lindau disease tumor suppressor/Androgen receptor; assay: Protac activity against VHL/AR in AR-positive human VCaP cells assessed as reduction in ERG mRNA expression level incubated for 24 hrs by qRT-PCR analysis relative to N-((1r,3r)-3-(3-Chloro-4-cyanophenoxy)-2,2,4,4-tetramethylcyclobutyl)-1-(2-hydroxyethyl)-1H-pyrazole-4-carboxamide; format: cell-based

- Activity [1]: inactive
- fold change (FC) [2]: > 10
- fold change (FC) [3]: > 10
- Activity [4]: inactive
- Activity [5]: Active
- Activity [6]: Dose-dependent effect
- Activity [7]: inactive
- Activity [8]: Dose-dependent effect
- DC50 [8]: 0.969 nM
- Activity [9]: > 50%
- Activity [10]: > 95%
- fold change (FC) [11]: > 10
- Activity [12]: Dose-dependent effect
- DC50 [12]: 0.153 nM
- Activity [14]: > 90%
- Activity [15]: > 99%
- fold change (FC) [16]: > 10
- Activity [17]: Dose-dependent effect
- Activity [18]: Dose-dependent effect
- Activity [19]: inactive
- Activity [20]: Dose-dependent effect
- DC50 [20]: 0.535 nM
- Activity [21]: > 95%
- IC50 (LNCaP): 2 nM
- Activity [22]: > 50%
- Activity [23]: > 95%
- IC50 (VCaP [24]): 6 nM
- Activity [25]: > 95%
- fold change (FC) [26]: > 10
- Activity [27]: 90%
- Activity [28]: > 50%
- fold change (FC) [29]: > 10
SMILES: Cc1cc([C@H](C(=O)N2C[C@H](O)C[C@H]2C(=O)N[C@@H](CC(=O)N2CCC(C#Cc3ccc(C(=O)N[C@H]4C(C)(C)[C@H](Oc5ccc(C#N)c(Cl)c5)C4(C)C)cc3)CC2)c2ccccc2)C(C)C)on1
- Ratio IC50 (VCaP [13]): 30
